Measurements as given in patent publication US11000033B2, “Ketone or oxime compound, and herbicide” (NISSAN CHEMICAL CORPORATION, priority 2014, dated 2021).

Assays:
Type in all cases: in vivo
transplanted rice plant = assay: Test Example 1: effect on crop, application before weed generation in submerged conditions (symbol a); details: application herbicide amount 320 g/ha
Method in brief: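 Rice at 2.5 leaf stage transplanted into submerged soil (4 cm depth) sown with three weed species; herbicide applied before weed emergence.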

[1] = system: Echinochloa oryzacola Vasing.; assay: Test Example 2: herbicidal activity, application during weed generation in submerged conditions (symbol A); details: Table 23; application herbicide amount 320 g/ha; grade 0-5 by criteria of Test Example 1
Method in brief: (§1)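 Weeds emerging under flooded conditions were treated with compound formulated as an emulsion and diluted with water to the intended herbicide amount, poured onto the surface of 4 cm standing water. Seeds had been co-sown in alluvial soil; plants grew at 25° C. to 30° C. and were assessed after 3 weeks.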

Scirpus juncoides = assay: Test Example 2: herbicidal activity, application during weed generation in submerged conditions (symbol B); details: Table 23; application herbicide amount 320 g/ha; grade 0-5 by criteria of Test Example 1
Method in brief: as §1

Leptochloa chinensis = assay: Test Example 3: herbicidal effect by foliage application, Wagner pot (symbol D); details: application herbicide amount 320 g/ha
Method in brief: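 Alluvial soil was flooded to a depth of 0.1–0.5 cm, seeded with the weeds and rice, and kept in a greenhouse at 25–30 °C. After 14 days of growth, the foliage received a small-sprayer application of emulsion diluted to the intended rate; injury was rated at 3 weeks.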

Avena fatua = assay: Test Example 4: herbicidal effect by soil treatment (symbol I); details: for I (Avena fatua) herbicidal effect grade: application herbicide amount 320 g/ha
Method in brief: (§2)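 Seeds were sown in sterilized diluvial soil, covered with about 1.5 cm of soil, and the soil surface was sprayed with a water-diluted emulsion of the compound at a predetermined rate. Plants grew in a greenhouse at 25° C. to 30° C.; effects were scored visually 3 weeks after application.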

Abutilon theophrasti [2] = assay: Test Example 4: herbicidal effect by soil treatment (symbol M); details: for M (Abutilon theophrasti) herbicidal effect grade: application herbicide amount 320 g/ha
Method in brief: as §2

soybean = assay: Test Example 4: effect on crop by soil treatment (symbol d); details: for d (soybean) effect on crop grade: application herbicide amount 320 g/ha
Method in brief: (§3)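 Plants grew in a 25° C. to 30° C. greenhouse after spot-sowing of seeds, including beet, rapeseed, wheat and rice, into sterilized diluvial soil under roughly 1.5 cm of cover soil.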

beet [3] = assay: Test Example 4: effect on crop by soil treatment (symbol f); details: for f (beet) effect on crop grade: application herbicide amount 320 g/ha
Method in brief: as §3

Setaria viridis = assay: Test Example 5: herbicidal effect by foliage application, plastic box (symbol G); details: 320 g/ha, 3 weeks after application
Method in brief: (§4)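 Emulsion formulation, diluted with water to the intended rate, was applied uniformly to leaves by small sprayer. Recipients were 14-day greenhouse-grown seedlings (25° C. to 30° C.). Assessment followed at 3 weeks.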

Lolium multiflorum Lam. = assay: Test Example 5: herbicidal effect by foliage application, plastic box (symbol K); details: 320 g/ha, 3 weeks after application
Method in brief: as §4

Abutilon theophrasti [4] = assay: Test Example 5: herbicidal effect by foliage application, plastic box (symbol M); details: 320 g/ha, 3 weeks after application
Method in brief: as §4

beet [5] = assay: Test Example 5: effect on crop by foliage application, plastic box (symbol f); details: 320 g/ha, 3 weeks after application
Method in brief: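 Crop seed is sown alongside grass and broadleaf weed species in spots in sterilized diluvial soil, then covered to a depth of about 1.5 cm. Plants grow in a greenhouse kept at 25° C. to 30° C.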

| SMILES | Effect grade on crop, a: transplanted rice plant (transplanted rice plant) | Herbicidal effect grade, A: Echinochloa oryzacola Vasing. [1] | Herbicidal effect grade, B: Scirpus juncoides (Scirpus juncoides) | herbicidal effect on D (Leptochloa chinensis), grade 0-5 (Leptochloa chinensis) | I (Avena fatua) herbicidal effect grade (Avena fatua) | M (Abutilon theophrasti) herbicidal effect grade (Abutilon theophrasti [2]) | d (soybean) effect on crop grade (soybean) | f (beet) effect on crop grade (beet [3]) | G: Setaria viridis, herbicidal effect grade (Setaria viridis) | K: Lolium multiflorum Lam., herbicidal effect grade (Lolium multiflorum Lam.) | M: Abutilon theophrasti, herbicidal effect grade (Abutilon theophrasti [4]) | f: beet, effect on crop grade (beet [5]) | I: Avena fatua, herbicidal effect grade (Avena fatua; 320 g/ha) | M: Abutilon theophrasti, herbicidal effect grade (Abutilon theophrasti [2]; 320 g/ha) | d: soybean, effect grade on crop (soybean; 320 g/ha) | f: beet, effect grade on crop (beet [3]; 320 g/ha) | G: Setaria viridis, herbicidal effect (criteria 0-5) (Setaria viridis) | K: Lolium multiflorum Lam., herbicidal effect (criteria 0-5) (Lolium multiflorum Lam.) | M: Abutilon theophrasti, herbicidal effect (criteria 0-5) (Abutilon theophrasti [4]) | f: beet, effect on crop (criteria 0-5) (beet [5]) |
| --- | --- | --- | --- | --- | --- | --- | --- | --- | --- | --- | --- | --- | --- | --- | --- | --- | --- | --- | --- | --- |
| CON=C(C)CC1CC(OCC#C[Si](C)(C)C)=C(c2c(C)cc(C)cc2C)C1=O (stereo not drawn) [1-031] | 0 (Herbicidal ratio of 5% or lower (almost no effect)) | 5 (Herbicidal ratio of 90% or more (almost completely withered)) | 2 (Herbicidal ratio of 20% or higher and lower than 40%) | 4 (Herbicidal ratio of 70% or higher and lower than 90%) | 0 (Herbicidal ratio of 5% or lower (almost no effect)) | 0 (Herbicidal ratio of 5% or lower (almost no effect)) | 0 (Herbicidal ratio of 5% or lower (almost no effect)) | 0 (Herbicidal ratio of 5% or lower (almost no effect)) | 1 (Herbicidal ratio of 5% or higher and lower than 20%) | 4 (Herbicidal ratio of 70% or higher and lower than 90%) | 0 (Herbicidal ratio of 5% or lower (almost no effect)) | 0 (Herbicidal ratio of 5% or lower (almost no effect)) | – | – | – | – | – | – | – | – |
| CCON=C(C)CC1CC(O)=C(c2c(C)cc(C)cc2C)C1=O (stereo not drawn) [1-003] | 5 (Herbicidal ratio of 90% or more (almost completely withered)) | 5 (Herbicidal ratio of 90% or more (almost completely withered)) | 3 (Herbicidal ratio of 40% or higher and lower than 70%) | 5 (Herbicidal ratio of 90% or more (almost completely withered)) | 4 (Herbicidal ratio of 70% or higher and lower than 90%) | 4 (Herbicidal ratio of 70% or higher and lower than 90%) | 3 (Herbicidal ratio of 40% or higher and lower than 70%) | 2 (Herbicidal ratio of 20% or higher and lower than 40%) | 5 (Herbicidal ratio of 90% or more (almost completely withered)) | 5 (Herbicidal ratio of 90% or more (almost completely withered)) | 4 (Herbicidal ratio of 70% or higher and lower than 90%) | 3 (Herbicidal ratio of 40% or higher and lower than 70%) | – | – | – | – | – | – | – | – |
| CON=C(C)CC1CC(OC(=O)COc2ccc(OC)cc2)=C(c2c(C)cc(C)cc2C)C1=O (stereo not drawn) [1-069] | 5 (Herbicidal ratio of 90% or more (almost completely withered)) | 4 (Herbicidal ratio of 70% or higher and lower than 90%) | 4 (Herbicidal ratio of 70% or higher and lower than 90%) | 5 (Herbicidal ratio of 90% or more (almost completely withered)) | 3 (Herbicidal ratio of 40% or higher and lower than 70%) | 4 (Herbicidal ratio of 70% or higher and lower than 90%) | 0 (Herbicidal ratio of 5% or lower (almost no effect)) | 0 (Herbicidal ratio of 5% or lower (almost no effect)) | 5 (Herbicidal ratio of 90% or more (almost completely withered)) | 5 (Herbicidal ratio of 90% or more (almost completely withered)) | 5 (Herbicidal ratio of 90% or more (almost completely withered)) | 1 (Herbicidal ratio of 5% or higher and lower than 20%) | – | – | – | – | – | – | – | – |
| CON=C(C)C(C)C1CC(O)=C(c2c(C)cc(C)cc2C)C1=O (stereo not drawn) [1-032] | 5 (Herbicidal ratio of 90% or more (almost completely withered)) | 5 (Herbicidal ratio of 90% or more (almost completely withered)) | 4 (Herbicidal ratio of 70% or higher and lower than 90%) | 5 (Herbicidal ratio of 90% or more (almost completely withered)) | 5 (Herbicidal ratio of 90% or more (almost completely withered)) | 4 (Herbicidal ratio of 70% or higher and lower than 90%) | 0 (Herbicidal ratio of 5% or lower (almost no effect)) | 4 (Herbicidal ratio of 70% or higher and lower than 90%) | 5 (Herbicidal ratio of 90% or more (almost completely withered)) | 5 (Herbicidal ratio of 90% or more (almost completely withered)) | 4 (Herbicidal ratio of 70% or higher and lower than 90%) | 3 (Herbicidal ratio of 40% or higher and lower than 70%) | – | – | – | – | – | – | – | – |
| CON=C(C)CC1CC(OC(=O)C2(C)CC2(Cl)Cl)=C(c2c(C)cc(C)cc2C)C1=O (stereo not drawn) [1-036] | 5 (Herbicidal ratio of 90% or more (almost completely withered)) | 5 (Herbicidal ratio of 90% or more (almost completely withered)) | 4 (Herbicidal ratio of 70% or higher and lower than 90%) | 5 (Herbicidal ratio of 90% or more (almost completely withered)) | 5 (Herbicidal ratio of 90% or more (almost completely withered)) | 5 (Herbicidal ratio of 90% or more (almost completely withered)) | 0 (Herbicidal ratio of 5% or lower (almost no effect)) | 3 (Herbicidal ratio of 40% or higher and lower than 70%) | 5 (Herbicidal ratio of 90% or more (almost completely withered)) | 5 (Herbicidal ratio of 90% or more (almost completely withered)) | 4 (Herbicidal ratio of 70% or higher and lower than 90%) | 3 (Herbicidal ratio of 40% or higher and lower than 70%) | – | – | – | – | – | – | – | – |
| CON=C(CC1CC(O)=C(c2c(C)cc(C)cc2C)C1=O)C1CCCC1 (stereo not drawn) [1-078] | 5 (Herbicidal ratio of 90% or more (almost completely withered)) | 4 (Herbicidal ratio of 70% or higher and lower than 90%) | 0 (Herbicidal ratio of 5% or lower (almost no effect)) | 4 (Herbicidal ratio of 70% or higher and lower than 90%) | – | – | – | – | – | – | – | – | 0 (Herbicidal ratio of 5% or lower (almost no effect)) | 0 (Herbicidal ratio of 5% or lower (almost no effect)) | 0 (Herbicidal ratio of 5% or lower (almost no effect)) | 0 (Herbicidal ratio of 5% or lower (almost no effect)) | 5 (Herbicidal ratio of 90% or more (almost completely withered)) | 5 (Herbicidal ratio of 90% or more (almost completely withered)) | 0 (Herbicidal ratio of 5% or lower (almost no effect)) | 0 (Herbicidal ratio of 5% or lower (almost no effect)) |
